The term IC50 denotes the midpoint of a concentration-inhibition curve. What is called GI50 is the concentration at which growth is held to half of that of the control.

The record followed here is paper PMC8624998, “Synthesis and Antiproliferative Evaluation of 3-Chloroazetidin-2-ones with Antimitotic Activity: Heterocyclic Bridged Analogues of Combretastatin A-4” (Pharmaceuticals, 2021).

In experiment [1] the test system is MCF-7 cells. Briefly: Cell viability assay (MTT/AlamarBlue), antiproliferative activity. It counts as cell-based, human. The conditions noted are these: read-out: IC50 (MCF-7, 72 h). Put shortly:
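MCF-7 cells seeded, left 24 h at 37 °C, then exposed 72 h to compound (1 nM–200 μM, or 0.001–100 μM) in ethanol or DMSO vehicle (≤1% ethanol, 0.1% DMSO). Viability read by MTT (1 mg/mL final, 3 h) or AlamarBlue (10% v/v, 3–5 h), relative to untreated controls as 100%.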
(In general: Alamar Blue is a resazurin reagent that responds to reducing activity.)

Experiment [2] concerns MCF-7 cells. Description: Lactate dehydrogenase (LDH) assay for cytotoxicity. The experiment is classed as cell-based. Particulars: Homo sapiens, MCF7; MCF-7, compound concentration 10 μM, 24 h; read-out: Lactate Dehydrogenase assay: % cell lysis (cell death). The procedure:
The toxicity and selectivity of 10n towards normal cells was investigated in the non-tumourigenic cell line HEK-293T (normal human epithelial embryonic kidney cells). […] The cytotoxic effect of selected 3-chloro-β-lactams 10e, 10f, 10i, 10n and 3,3-dichloro-β-lactams 11e and 11n in MCF-7 cells was initially determined using the lactate dehydrogenase (LDH) assay.
The cytotoxicity of selected compounds was determined using the CytoTox 96 non-radioactive cytotoxicity assay (Promega Corporation, Madison, WI, USA). Briefly, MCF-7 cells were seeded in a 96-well plate (200 μL per well), at a density of 2.5 × 10^4 cells/mL, and incubated for 24 h. The cells were then treated with selected β-lactam compounds as described above for the cell viability assay. […] Supernatant (50 μL) was removed from each well to a 96-well plate. Reconstituted ‘CytoTox 96® Reagent (50 μL) was added to each well and the plate was placed in the dark at 20 °C for 30 min. ‘Stop solution’ (50 μL) was added to each well and the samples were analysed at 490 nm using a Dynatech MR5000 plate reader. The percentage cell death at 10 μM was calculated.

Another experiment has as its system UACC-257. Description: NCI-60 5 dose screen, Melanoma. The experiment is classed as cell-based. The conditions noted are these: Homo sapiens.
The subject of the next experiment is MDA-MB-231/ATCC. Briefly: NCI-60 5 dose screen, Breast Cancer. The conditions noted are these: Homo sapiens. It counts as cell-based.
A further experiment deals with SNB-19. Description: NCI-60 5 dose screen, CNS Cancer. The experiment is classed as cell-based. The conditions noted are these: Homo sapiens.
The next experiment has as its system DU-145. Briefly: NCI-60 5 dose screen, Prostate cancer. The conditions noted are these: Homo sapiens. It counts as cell-based.
The subject of another experiment is OVCAR-4. Description: NCI-60 5 dose screen, Ovarian Cancer. It counts as cell-based. The conditions noted are these: Homo sapiens.
For another experiment, the system named is HOP-62. Description: NCI-60 5 dose screen, NSC Lung Cancer. It counts as cell-based. The conditions noted are these: Homo sapiens.
For another experiment, the system named is PC-3. Briefly: NCI-60 5 dose screen, Prostate cancer. The experiment is classed as cell-based. Particulars: Homo sapiens.
The test system of another experiment is U251. Description: NCI-60 5 dose screen, CNS Cancer. It counts as cell-based. Particulars: Homo sapiens, U-251.
The test system of the next experiment is NCI-H460. Description: NCI-60 5 dose screen, NSC Lung Cancer. It counts as cell-based. The conditions noted are these: Homo sapiens.
In a further experiment the test system is HT29. Briefly: NCI-60 5 dose screen, Colon Cancer. The conditions noted are these: Homo sapiens, HT-29. It counts as cell-based.
The next experiment concerns NCI/ADR-RES. Briefly: NCI-60 5 dose screen, Ovarian Cancer. The experiment is classed as cell-based. Particulars: Homo sapiens.
The subject of a further experiment is SK-OV-3. Description: NCI-60 5 dose screen, Ovarian Cancer. The experiment is classed as cell-based. The conditions noted are these: Homo sapiens.
Setting [3] is: Homo sapiens, MCF7, 72 h, MCF-7, 72 h.
The mark [4] stands for this setting: MDA-MB-231/ATCC, read-out: GI50.

Where two headings read alike, the source gives them in different places.

For `COc1ccc(/C=C\c2cc(OC)c(OC)c(OC)c2)cc1O` [CA-4, Combretastatin A-4], the IC50 with MCF-7 cells [1] (setting [3]) is 3.9 nM; in the experiment with MCF-7 cells [1] (MCF-7, 72 h), 4 nM. Moreover, the cytotoxicity at 10 µM with MCF-7 cells [2] was 12%.
As to `CCSc1ccc(C2C(Br)C(=O)N2c2cc(OC)c(OC)c(OC)c2)cc1` (centres unmarked) [Compound 16d, 3-Bromo-4-(4-(ethylthio)phenyl)-1-(3,4,5-trimethoxyphenyl)azetidin-2-one], the GI50 with UACC-257 (read-out: GI50) worked out at 14300 nM; in the experiment on MDA-MB-231/ATCC (setting [4]), 488 nM; in the experiment on SNB-19 (read-out: GI50), 440 nM; with DU-145 (read-out: GI50), 349 nM; in the experiment on OVCAR-4 (read-out: GI50) it was 1430 nM; with HOP-62 (read-out: GI50), 336 nM. Moreover, the GI50 in the experiment on PC-3 (read-out: GI50) turned out to be 297 nM; with U251 (U251, read-out: GI50) it was 345 nM; in the experiment with NCI-H460 (read-out: GI50), 539 nM; with HT29 (HT29, read-out: GI50), 351 nM; in the experiment with NCI/ADR-RES (read-out: GI50), 125 nM; in the experiment on SK-OV-3 (read-out: GI50), 392 nM. Also, the half-inhibitory concentration (IC50) in the experiment with MCF-7 cells [1] (setting [3]) came out at 1100 ± 100 nM.
With `COc1ccc(C2N(c3cc(OC)c(OC)c(OC)c3)C(=O)C2(Cl)Cl)cc1O` (centres unmarked) [Compound 11n, 3,3-Dichloro-4-(3-hydroxy-4-methoxyphenyl)-1-(3,4,5-trimethoxyphenyl)azetidin-2-one], the 50% growth inhibitory concentration (GI50) was 158 nM with UACC-257; 31.6 nM with MDA-MB-231/ATCC (MDA-MB-231); 45.7 nM with SNB-19; 35.9 nM in the experiment with DU-145; 74.1 nM in the experiment on OVCAR-4; 35 nM with HOP-62. Further, the concentration for 50% growth inhibition (GI50) was 35.3 nM in the experiment on PC-3; 32.5 nM in the experiment on U251; 35.4 nM in the experiment with NCI-H460; 2780 nM in the experiment with HT29; 26.5 nM in the experiment on NCI/ADR-RES; 25.4 nM in the experiment with SK-OV-3. Moreover, the IC50 with MCF-7 cells [1] (Homo sapiens, MCF7, 72 h) came out at 31 ± 4 nM. For the same compound, the cytotoxicity at 10 µM in the experiment with MCF-7 cells [2] is 8%.
On to `COc1ccc([C@H]2[C@H](Cl)C(=O)N2c2cc(OC)c(OC)c(OC)c2)cc1` (relative stereo) [Compound 10e trans, Trans-3-chloro-1-(3,4,5-trimethoxyphenyl)-4-(4-methoxyphenyl) azetidin-2-one], for which the GI50 in the experiment with UACC-257 (read-out: GI50) turned out to be 23300 nM; in the experiment on MDA-MB-231/ATCC (setting [4]), 68.6 nM; with SNB-19 (read-out: GI50), 74.6 nM; in the experiment on DU-145 (read-out: GI50), 44.6 nM; with OVCAR-4 (read-out: GI50) it was 106 nM; with HOP-62 (read-out: GI50), 53.8 nM. Also, the GI50 was 44.1 nM in the experiment with PC-3 (read-out: GI50); 37 nM with U251 (U251, read-out: GI50); 306 nM in the experiment with NCI-H460 (read-out: GI50); 29.2 nM in the experiment with HT29 (HT29, read-out: GI50); 35.3 nM in the experiment on NCI/ADR-RES (read-out: GI50); 182 nM in the experiment on SK-OV-3 (read-out: GI50). Further, the IC50 in the experiment with MCF-7 cells [1] (setting [3]) stood at 56 ± 7 nM. Further, the cytotoxicity at 10 µM in the experiment with MCF-7 cells [2] worked out at 5%.
As to `COc1ccc(C2C(Cl)C(=O)N2c2cc(OC)c(OC)c(OC)c2)cc1O` (centres unmarked) [Compound 10n, 3-Chloro-4-(3-hydroxy-4-methoxy-phenyl)-1-(3,4,5-trimethoxyphenyl)azetidin-2-one], the 50% inhibitory concentration (IC50) was 17.5 ± 9 nM in the experiment with MCF-7 cells [1] (setting [3]) and 17 ± 9 nM in the experiment with MCF-7 cells [1] (MCF-7, 72 h). Further, in the experiment on MCF-7 cells [2], the cytotoxicity at 10 µM was determined as 17%.
